Entries after “also recorded” stand apart in the source; their conditions may differ.
System: seizures associated with Cortical Dysplasia and Cortical Brain Malformation
Experiment: Open label, expanded-access program of botanically derived purified CBD: caregiver-diary seizure frequency
Format: in vivo, human patients
Parameters: reduction in atonic seizures over the treatment period / reduction in tonic seizures over the treatment period / reduction in focal seizures without impairment over the treatment period: concentration or dose not given beside the values
Conditions: for Seizure frequency: Focal with impairment: baseline 49.0; for Seizure frequency: Atonic: baseline 80.0
Method: Subjects were required to be on one or more AEDs at stable doses for a minimum of two weeks prior to baseline and to have stable vagus nerve stimulation (VNS) settings and ketogenic diet ratios for a minimum of four weeks prior to baseline.
Dose was then increased weekly by 5 mg/kg/day to a goal of 20 to 25 mg/kg/day.
A maximum dose of 50 mg/kg/day could be utilised for patients who were tolerating the medication but had not achieved seizure control; these patients had further weekly titration by 5 mg/kg/day.
Modifications were made to concomitant AEDs as per clinical indication.
Seizure frequency, intensity, and duration were recorded by caregivers in a diary during a baseline period of at least 28 days. Changes in seizure frequency relative to baseline were calculated after at least 2 weeks and at defined timepoints of treatment.
Patients may be defined as responders if they had more than 50% reduction in seizure frequency compared to baseline. the percent change in seizure frequency was calculated as follows: […]
The percent change of seizure frequency may be calculated for any time interval where seizure number has been recorded. For the purpose of this example the percent change of seizure frequency for the end of the treatment period was calculated as follows: […]

## C=C(C)[C@@H]1CCC(C)=C[C@H]1c1c(O)cc(CCCCC)cc1O [CBD, cannabidiol]
Patient 4, 96 weeks, CBD 50.0 mg/kg/day, baseline 196.0
  Seizure frequency: Tonic: 22.0 seizures per week
Patient 4, 120 weeks, CBD 42.6 mg/kg/day, baseline 196.0
  Seizure frequency: Tonic: 16.0 seizures per week
Patient 4, 132 weeks, CBD 49.8 mg/kg/day, baseline 196.0
  Seizure frequency: Tonic: 36.0 seizures per week
Patient 4, treated for 132 weeks, vs baseline
  reduction in tonic seizures over the treatment period: 81.6%
Patient 5, 4 weeks, CBD 20.0 mg/kg/day, baseline 4.0
  Seizure frequency: Tonic: 3.2 seizures per week
Patient 5, 8 weeks, CBD 35.0 mg/kg/day, baseline 4.0
  Seizure frequency: Tonic: 11.0 seizures per week
Patient 5, 12 weeks, CBD 50.0 mg/kg/day, baseline 4.0
  Seizure frequency: Tonic: 1.0 seizures per week
Patient 5, 24 weeks, CBD 50.0 mg/kg/day, baseline 4.0
  Seizure frequency: Tonic: 0.0 seizures per week
Patient 5, 36 weeks, CBD 47.0 mg/kg/day, baseline 4.0
  Seizure frequency: Tonic: 0.0 seizures per week
Patient 5, 48 weeks, CBD 46.0 mg/kg/day, baseline 4.0
  Seizure frequency: Tonic: 1.0 seizures per week
Patient 5, 60 weeks, CBD 49.0 mg/kg/day, baseline 4.0
  Seizure frequency: Tonic: 1.0 seizures per week
Patient 5, 72 weeks, CBD 50.0 mg/kg/day, baseline 4.0
  Seizure frequency: Tonic: 0.0 seizures per week
Patient 5, 84 weeks, CBD 50.0 mg/kg/day, baseline 4.0
  Seizure frequency: Tonic: 0.0 seizures per week
Patient 5, 96 weeks, CBD 49.7 mg/kg/day, baseline 4.0
  Seizure frequency: Tonic: 0.0 seizures per week
Patient 5, 108 weeks, CBD 49.7 mg/kg/day, baseline 4.0
  Seizure frequency: Tonic: 0.0 seizures per week
Patient 5, 132 weeks, CBD 49.1 mg/kg/day, baseline 4.0
  Seizure frequency: Tonic: 0.0 seizures per week
Patient 5, 144 weeks, CBD 50.0 mg/kg/day, baseline 4.0
  Seizure frequency: Tonic: 0.0 seizures per week
Patient 5, treated for 144 weeks, vs baseline
  reduction in tonic seizures over the treatment period: 100%
Patient 6, 4 weeks, CBD 25.0 mg/kg/day, baseline 20.0
  Seizure frequency: Focal without impairment: 8.0 seizures per week
Patient 6, 8 weeks, CBD 25.0 mg/kg/day, baseline 20.0
  Seizure frequency: Focal without impairment: 0.0 seizures per week
Patient 6, 16 weeks, CBD 25.0 mg/kg/day, baseline 20.0
  Seizure frequency: Focal without impairment: 4.0 seizures per week
Patient 6, 24 weeks, CBD 25.0 mg/kg/day, baseline 20.0
  Seizure frequency: Focal without impairment: 2.0 seizures per week
Patient 6, treated for 24 weeks, vs baseline
  reduction in focal seizures without impairment over the treatment period: 90%
Patient 7, 2 weeks, CBD 10.0 mg/kg/day
  Seizure frequency: Focal with impairment: 22.0 seizures per week
Patient 7, 2 weeks, CBD 10.0 mg/kg/day, baseline 233.0
  Seizure frequency: Focal without impairment: 182.0 seizures per week
Patient 7, 4 weeks, CBD 20.0 mg/kg/day
  Seizure frequency: Focal with impairment: 26.0 seizures per week
Patient 7, 4 weeks, CBD 20.0 mg/kg/day, baseline 233.0
  Seizure frequency: Focal without impairment: 62.0 seizures per week
Patient 7, 8 weeks, CBD 25.0 mg/kg/day
  Seizure frequency: Focal with impairment: 35.0 seizures per week
Patient 7, 8 weeks, CBD 25.0 mg/kg/day, baseline 233.0
  Seizure frequency: Focal without impairment: 125.0 seizures per week
Patient 7, 12 weeks, CBD 25.0 mg/kg/day
  Seizure frequency: Focal with impairment: 40.0 seizures per week
Patient 7, 12 weeks, CBD 25.0 mg/kg/day, baseline 233.0
  Seizure frequency: Focal without impairment: 112.0 seizures per week
Patient 7, 16 weeks, CBD 25.0 mg/kg/day
  Seizure frequency: Focal with impairment: 66.7 seizures per week
Patient 7, 16 weeks, CBD 25.0 mg/kg/day, baseline 233.0
  Seizure frequency: Focal without impairment: 93.3 seizures per week
Patient 7, 24 weeks, CBD 25.0 mg/kg/day
  Seizure frequency: Focal with impairment: 62.4 seizures per week
Patient 7, 24 weeks, CBD 25.0 mg/kg/day, baseline 233.0
  Seizure frequency: Focal without impairment: 96.8 seizures per week
Patient 7, 36 weeks, CBD 20.0 mg/kg/day
  Seizure frequency: Focal with impairment: 94.8 seizures per week
Patient 7, 36 weeks, CBD 20.0 mg/kg/day, baseline 233.0
  Seizure frequency: Focal without impairment: 39.7 seizures per week
Patient 7, 48 weeks, CBD 20.0 mg/kg/day
  Seizure frequency: Focal with impairment: 62.5 seizures per week
Patient 7, 48 weeks, CBD 20.0 mg/kg/day, baseline 233.0
  Seizure frequency: Focal without impairment: 92.9 seizures per week
Patient 7, 60 weeks, CBD 20.0 mg/kg/day
  Seizure frequency: Focal with impairment: 72.8 seizures per week
Patient 7, 60 weeks, CBD 20.0 mg/kg/day, baseline 233.0
  Seizure frequency: Focal without impairment: 141.2 seizures per week
Patient 7, 72 weeks, CBD 20.0 mg/kg/day
  Seizure frequency: Focal with impairment: 179.7 seizures per week
Patient 7, 72 weeks, CBD 20.0 mg/kg/day, baseline 233.0
  Seizure frequency: Focal without impairment: 139.4 seizures per week
Patient 7, treated for 72 weeks, vs baseline
  reduction in focal seizures without impairment over the treatment period: 40.2%
Patient 8, 4 weeks, CBD 20.0 mg/kg/day, baseline 280.0
  Seizure frequency: Tonic: 6.0 seizures per week
Patient 8, 8 weeks, CBD 25.0 mg/kg/day, baseline 280.0
  Seizure frequency: Tonic: 5.0 seizures per week
Patient 8, 12 weeks, CBD 25.0 mg/kg/day
  Seizure frequency: Atonic: 12.0 seizures per week
Patient 8, 12 weeks, CBD 25.0 mg/kg/day, baseline 280.0
  Seizure frequency: Tonic: 60.0 seizures per week
Patient 8, 16 weeks, CBD 25.0 mg/kg/day
  Seizure frequency: Atonic: 24.0 seizures per week
Patient 8, 16 weeks, CBD 25.0 mg/kg/day, baseline 280.0
  Seizure frequency: Tonic: 56.0 seizures per week
Patient 8, 24 weeks, CBD 25.0 mg/kg/day
  Seizure frequency: Atonic: 4.0 seizures per week
Patient 8, 24 weeks, CBD 25.0 mg/kg/day, baseline 280.0
  Seizure frequency: Tonic: 32.0 seizures per week
Patient 8, 36 weeks, CBD 10.0 mg/kg/day
  Seizure frequency: Atonic: 4.0 seizures per week
Patient 8, 36 weeks, CBD 10.0 mg/kg/day, baseline 280.0
  Seizure frequency: Tonic: 896.0 seizures per week
Patient 8, treated for 36 weeks, vs baseline
  reduction in atonic seizures over the treatment period: 95.0%
All patients, atonic, tonic and focal without impairment seizures
  reductions in seizures over period of treatment, overall: 40.2-100.0%
One patient (patient 5), after 12 months of CBD treatment
  seizure freedom from tonic seizures: seizure free of tonic seizures; also recorded: completely seizure free
Patients with Cortical Dysplasia and Cortical Brain Malformation
  effect on frequency of atonic, tonic and focal without impairment seizures (in words): effective in reducing the frequency; also recorded: significantly reduce the number of seizures; also recorded: significant reduction
